Like-named read-outs stand apart in the source and are kept apart here.
What was measured:
SHV-5 β-lactamase = molecular target: T1, SHV-5 β-lactamase (Klebsiella pneumoniae, UniProt P0A3M1); test: β-lactamase enzyme inhibition, SHV-5; format: biochemical
T1 construct: made in house; host or cells: E. coli BL21(DE3)
How it was run: (§1)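 Enzyme + inhibitor, 15 min, 37° C; substrate added, absorbance read 10 min. OXA-1/p99 AmpC: nitrocefin 100 μM final, A486. KPC-2: imipenem, A300. SHV-5: cefotaxime, A260. IC50 = 50% drop in initial hydrolysis rate vs no-inhibitor control.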

[1] = system: S. aureus MSSA-7 producing penicillinase PC-1; test: broth microdilution MIC, S. aureus PC-1; format: cell-based; conditions: Fixed Pip (piperacillin) 4 μg/mL
How it was run: (§2)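 The inhibitor is titrated in twofold steps (final 32 to 0.25 μg/mL) alongside a static 4 μg/mL beta-lactam in CAMHB, with CLSI inoculation. After 16-20 hours at 37° C, growth inhibition is scored by eye.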

p99 AmpC β-lactamase = molecular target: T2, p99 AmpC β-lactamase (Enterobacter cloacae, UniProt P05364); test: β-lactamase enzyme inhibition, p99 AmpC; format: biochemical
T2 construct: made in house; host or cells: E. coli BL21(DE3)
T2 sequence (P05364 21-381): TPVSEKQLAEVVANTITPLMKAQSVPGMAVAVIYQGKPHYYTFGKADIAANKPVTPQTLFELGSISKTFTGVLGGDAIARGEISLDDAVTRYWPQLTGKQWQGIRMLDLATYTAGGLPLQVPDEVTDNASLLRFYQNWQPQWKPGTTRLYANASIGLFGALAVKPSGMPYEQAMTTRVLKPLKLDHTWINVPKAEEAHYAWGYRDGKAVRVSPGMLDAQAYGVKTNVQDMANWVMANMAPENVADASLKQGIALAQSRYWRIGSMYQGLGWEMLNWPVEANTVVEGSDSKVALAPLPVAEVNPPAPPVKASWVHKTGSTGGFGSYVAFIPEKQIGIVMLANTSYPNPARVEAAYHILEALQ
How it was run: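 Inhibitor and enzyme were incubated 15 min at 37°C first. The enzyme was recombinant p99 AmpC, untagged, from E. coli BL21(DE3), purified by ion-exchange and size-exclusion chromatography.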

KPC-2 β-lactamase = molecular target: T3, KPC-2 β-lactamase (Klebsiella pneumoniae, UniProt Q9F663); test: β-lactamase enzyme inhibition, KPC-2; format: biochemical
T3 construct: made in house; host or cells: E. coli BL21(DE3)
T3 sequence (Q9F663 25-293, looked up): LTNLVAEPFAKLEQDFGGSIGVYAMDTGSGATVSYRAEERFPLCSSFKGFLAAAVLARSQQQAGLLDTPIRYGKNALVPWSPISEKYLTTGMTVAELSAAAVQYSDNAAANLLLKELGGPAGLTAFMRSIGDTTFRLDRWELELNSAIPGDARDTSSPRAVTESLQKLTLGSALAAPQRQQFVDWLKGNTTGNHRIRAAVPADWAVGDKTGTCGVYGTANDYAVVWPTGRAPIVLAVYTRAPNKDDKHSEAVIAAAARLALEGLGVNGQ
How it was run: as §1

[2] = system: K. pneumoniae A-1797 expressing KPC-2 and VIM-4; test: broth microdilution MIC, K. pneumoniae KPC-2 and VIM-4; format: cell-based; conditions: Fixed Mero (meropenem) 4 μg/mL
How it was run: as §2

[3] = molecular target: T4, VIM-2 metallo β-lactamase (Pseudomonas aeruginosa, UniProt Q9K2N0); test: β-lactamase enzyme inhibition, VIM-2; format: biochemical; conditions: Nitrocefin 100 μM, 486 nm; 15 min at 37° C. preincubation; read-out: IC50 VIM-2 (Class B)
T4 construct: made in house; host or cells: E. coli BL21(DE3)
How it was run: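 Inhibitor and enzyme sat together 15 min at 37° C before 100 μM nitrocefin (final) was added and 486 nm absorbance read for 10 min. IC50 is the concentration halving initial hydrolysis rate relative to uninhibited wells. Protein came from Q sepharose anion exchange at pH 7.5, repeated to >90% purity.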

[4] = system: E. coli ESBL4 expressing CTX-M-15; test: broth microdilution MIC, E. coli CTX-M-15; format: cell-based; conditions: Fixed CAZ (ceftazidime) 4 μg/mL
How it was run: as §2

[5] = system: E. cloacae 144200 expressing Class C P99 AmpC; test: broth microdilution MIC, E. cloacae P99; format: cell-based; conditions: Fixed CAZ (ceftazidime) 4 μg/mL
How it was run: as §2

[6] = system: K. pneumoniae 156319 expressing KPC-3; test: broth microdilution MIC, K. pneumoniae KPC-3; format: cell-based; conditions: Fixed Mero (meropenem) 4 μg/mL
How it was run: as §2

[7] = system: P. aeruginosa Ps296 expressing VIM-2; test: broth microdilution MIC, P. aeruginosa VIM-2; format: cell-based; conditions: Fixed Mero (meropenem) 4 μg/mL
How it was run: as §2

OXA-1 β-lactamase = molecular target: T5, OXA-1 β-lactamase (Escherichia coli, UniProt P13661); test: β-lactamase enzyme inhibition, OXA-1; format: biochemical; conditions: Nitrocefin 100 μM, 486 nm; 15 min at 37° C. preincubation; read-out: IC50 OXA-1 (Class D)
T5 construct: made in house; host or cells: E. coli BL21(DE3)
T5 sequence (P13661 26-276): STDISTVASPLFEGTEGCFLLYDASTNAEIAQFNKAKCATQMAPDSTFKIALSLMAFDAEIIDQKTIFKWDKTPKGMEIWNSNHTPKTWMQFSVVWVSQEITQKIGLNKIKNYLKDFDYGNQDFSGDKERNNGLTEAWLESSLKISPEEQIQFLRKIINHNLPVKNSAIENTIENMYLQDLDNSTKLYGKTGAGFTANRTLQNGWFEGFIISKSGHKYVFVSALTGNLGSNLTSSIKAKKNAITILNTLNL
How it was run: as §1

[8] = imipenem substrate, 300 nm, 15 min at 37° C. preincubation, read-out: IC50 KPC-2 (Class A)

T1 sequence (P0A3M1 22-286): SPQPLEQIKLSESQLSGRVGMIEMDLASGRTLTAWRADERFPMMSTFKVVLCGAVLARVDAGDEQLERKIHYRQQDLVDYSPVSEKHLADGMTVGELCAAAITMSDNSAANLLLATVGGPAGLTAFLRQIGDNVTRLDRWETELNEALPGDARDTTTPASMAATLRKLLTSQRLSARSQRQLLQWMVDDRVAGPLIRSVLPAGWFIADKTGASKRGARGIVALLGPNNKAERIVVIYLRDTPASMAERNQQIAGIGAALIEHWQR

Compound | IC50 (SHV-5 β-lactamase) [nM] | MIC of exemplary compounds in presence of fixed β-lactams, S. aureus MSSA-7 PC-1 [1] | IC50 (p99 AmpC β-lactamase) [nM] | IC50 (KPC-2 β-lactamase; [8]) [nM] | MIC of exemplary compounds in presence of fixed β-lactams, K.P. A-1797 KPC-2 VIM-4 [2] | IC50 [3] [nM] | MIC of exemplary compounds in presence of fixed β-lactams, E. coli ESBL4 CTX-M-15 [4] | MIC of exemplary compounds in presence of fixed β-lactams, E. cl. 144200 p99 AmpC [5] | MIC of exemplary compounds in presence of fixed β-lactams, K.P. 156319 KPC-3 [6] | MIC of exemplary compounds in presence of fixed β-lactams, P. aerug. Ps296 VIM-2 [7] | IC50 (OXA-1 β-lactamase) [nM] | IC50 (KPC-2 β-lactamase) [nM]
CC(=O)CCCC(=O)N[C@H]1Cc2cccc(C(=O)O)c2OB1O [Example 13, (R)-2-Hydroxy-3-(5-oxo-hexanoylamino)-3,4-dihydro-2H-benzo[e][1,2]oxaborinine-8-carboxylic acid] | < 100 | C (C represents the MIC in the presence of ≤4 g/mL of a β-lactamase inhibitor) | < 100 | 100 to 1000 | C (C represents the MIC in the presence of ≤4 g/mL of a β-lactamase inhibitor) | 100 to 1000 | C (C represents the MIC in the presence of ≤4 g/mL of a β-lactamase inhibitor) | C (C represents the MIC in the presence of ≤4 g/mL of a β-lactamase inhibitor) | C (C represents the MIC in the presence of ≤4 g/mL of a β-lactamase inhibitor) | C (C represents the MIC in the presence of ≤4 g/mL of a β-lactamase inhibitor) | < 100 | 
O=C(CCc1cncs1)N[C@H]1Cc2cccc(C(=O)O)c2OB1O [Example 32, (R)-2-hydroxy-3-(3-(thiazol-5-yl)propanamido)-3,4-dihydro-2H-benzo[e][1,2]oxaborinine-8-carboxylicacid] | < 100 | C (C represents the MIC in the presence of ≤4 g/mL of a β-lactamase inhibitor) | < 100 | < 100 | B (B represents the MIC in the presence of between 8 and 32 g/mL of a β-lactamase inhibitor) | 1000 to 10000 | C (C represents the MIC in the presence of ≤4 g/mL of a β-lactamase inhibitor) | C (C represents the MIC in the presence of ≤4 g/mL of a β-lactamase inhibitor) | C (C represents the MIC in the presence of ≤4 g/mL of a β-lactamase inhibitor) | C (C represents the MIC in the presence of ≤4 g/mL of a β-lactamase inhibitor) | < 100 | 
CCCC(=O)N[C@H]1Cc2cccc(C(=O)O)c2OB1O [Example 1, (R)-3-Butyrylamino-2-hydroxy-3,4-dihydro-2H-benzo[e][1,2]oxaborinine-8-carboxylic acid] | < 100 | C (C represents the MIC in the presence of ≤4 g/mL of a β-lactamase inhibitor) | < 100 |  | A (A represents an MIC of the fixed β-lactam antibiotic in the presence of >32 g/mL of a β-lactamase inhibitor) | 1000 to 10000 | C (C represents the MIC in the presence of ≤4 g/mL of a β-lactamase inhibitor) | C (C represents the MIC in the presence of ≤4 g/mL of a β-lactamase inhibitor) | C (C represents the MIC in the presence of ≤4 g/mL of a β-lactamase inhibitor) | A (A represents an MIC of the fixed β-lactam antibiotic in the presence of >32 g/mL of a β-lactamase inhibitor) | < 100 | < 100
O=C(CCn1cccn1)N[C@H]1Cc2cccc(C(=O)O)c2OB1O [Example 28, (R)-2-Hydroxy-3-(3-pyrazol-1-yl-propionylamino)-3,4-dihydro-2H-benzo[e][1,2]oxaborinine-8-carboxylicacid] | < 100 | C (C represents the MIC in the presence of ≤4 g/mL of a β-lactamase inhibitor) | < 100 | < 100 | B (B represents the MIC in the presence of between 8 and 32 g/mL of a β-lactamase inhibitor) | 1000 to 10000 | C (C represents the MIC in the presence of ≤4 g/mL of a β-lactamase inhibitor) | C (C represents the MIC in the presence of ≤4 g/mL of a β-lactamase inhibitor) | C (C represents the MIC in the presence of ≤4 g/mL of a β-lactamase inhibitor) | B (B represents the MIC in the presence of between 8 and 32 g/mL of a β-lactamase inhibitor) | < 100 | 
O=C(/C=C/c1cocn1)N[C@H]1Cc2cccc(C(=O)O)c2OB1O [Example 44, (R)-2-Hydroxy-3-(3-oxazol-4-yl-acryloylamino)-3,4-dihydro-2H-benzo[e][1,2]oxaborinine-8-carboxylicacid] | < 100 | C (C represents the MIC in the presence of ≤4 g/mL of a β-lactamase inhibitor) | < 100 | < 100 | B (B represents the MIC in the presence of between 8 and 32 g/mL of a β-lactamase inhibitor) | 100 to 1000 | C (C represents the MIC in the presence of ≤4 g/mL of a β-lactamase inhibitor) | C (C represents the MIC in the presence of ≤4 g/mL of a β-lactamase inhibitor) | C (C represents the MIC in the presence of ≤4 g/mL of a β-lactamase inhibitor) | C (C represents the MIC in the presence of ≤4 g/mL of a β-lactamase inhibitor) | < 100 | 
O=C(O)c1cccc2c1OB(O)[C@@H](NC(=O)C(Cl)CC(F)F)C2 (stereo partly drawn) [Example 5, (R)-3-(2-Chloro-4,4-difluoro-butyrylamino)-2-hydroxy-3,4-dihydro-2H-benzo[e][1,2]oxaborinine-8-carboxylic acid] | < 100 | C (C represents the MIC in the presence of ≤4 g/mL of a β-lactamase inhibitor) | < 100 | < 100 | B (B represents the MIC in the presence of between 8 and 32 g/mL of a β-lactamase inhibitor) | 1000 to 10000 | C (C represents the MIC in the presence of ≤4 g/mL of a β-lactamase inhibitor) | C (C represents the MIC in the presence of ≤4 g/mL of a β-lactamase inhibitor) | C (C represents the MIC in the presence of ≤4 g/mL of a β-lactamase inhibitor) | A (A represents an MIC of the fixed β-lactam antibiotic in the presence of >32 g/mL of a β-lactamase inhibitor) | < 100 | 
CC(Cl)(Cl)C(=O)N[C@H]1Cc2cccc(C(=O)O)c2OB1O [Example 11, (R)-3-(2,2-Dichloro-propionylamino)-2-hydroxy-3,4-dihydro-2H-benzo[e][1,2]oxaborinine-8-carboxylic acid] | < 100 | C (C represents the MIC in the presence of ≤4 g/mL of a β-lactamase inhibitor) | < 100 | < 100 | A (A represents an MIC of the fixed β-lactam antibiotic in the presence of >32 g/mL of a β-lactamase inhibitor) | 1000 to 10000 | C (C represents the MIC in the presence of ≤4 g/mL of a β-lactamase inhibitor) | C (C represents the MIC in the presence of ≤4 g/mL of a β-lactamase inhibitor) | C (C represents the MIC in the presence of ≤4 g/mL of a β-lactamase inhibitor) | B (B represents the MIC in the presence of between 8 and 32 g/mL of a β-lactamase inhibitor) | < 100 | 

Source: US11008346B2, “Beta-lactamase inhibitors” (priority 2014, dated 2021)
